Measured values: US20250171821A1, “HIF-1 ACTIVATORS AND USES THEREOF” (Ramot at Tel-Aviv University Ltd., priority 2022, published 2025)
Entries after “also recorded” stand apart in the source; their conditions may differ. Where two headings read alike, the source gives them in different places.

Assays:
NIH/3T3 cell line = test: Cell confluence / number of cells per image in NIH/3T3 cells; format: cell-based, mouse; settings: 0.63-5 μM ML228, 48 hours, p<0.0001
Description: Embryonic mouse fibroblast NIH/3T3 cell line (ATCC) were seeded at a concentration of 50*10^3 cells/well on 96 well glass bottom plate (P96-1.5H-N, Cellvis) for the immunofluorescence experiment and on cell culture microplate, 96 well, PS, F-Bottom (655090, greiner) for the viability experiment. The cells were cultured with Dulbecco's modified Eagle's medium (DMEM) supplemented with 10% fetal calf serum, 1% Penicillin-Streptomycin solution and 1% L-glutamine (All purchased from Rhenium). At 24 hours post seeding, cells were treated for another 48 hours by replacing them with the cell medium supplemented with a serial dilution (5-0.02 μM, factor dilution of 2) of the ML228, Daprodustat, Enarodustat, Molidustat, Vadadustat or Roxadustat molecules dissolved in DMSO. The final DMSO concentration in the cell medium was 0.01%. Cells were maintained in an incubator at 37° C. in a humidified atmosphere containing 5% CO2.
Image acquisition and quantification were performed by Incucyte SX5 (Sartorius) using software version 2022B Rev2. A standard scan was done for 9 images per well using 20× objective, 2 optical modules (green at excitation/emission of 453-485 nm/494-533 nm in 300 msec acquisition time, and near-IR at excitation/emission of 648-674 nm/685-756 nm in 400 msec acquisition time, including Phase channel) following immunofluorescence protocol. For the image analysis, 2-6 replicates per condition were used. Using the Basic Analyzer mode, “Phase Object Confluence (%)” was acquired using the Phase channel. This measurement is the percentage of the image area occupied by cells. “Total Collagen-I Integrated Intensity Per Image (GCU×μm^2/Image)” was acquired using the green optical module. GCU stands for Green calibrated Unit, while this measurement is the total sum of the Collagen-I objects' fluorescent intensity in the image. “#Cells (Per image)” was acquired by the near-IR optical module. This measurement was calculated by counting the number of nuclei per image.
Multiple comparisons were performed by ordinary one-way ANOVA followed by Dunnett's post-hoc statistical hypothesis for comparing each condition mean to the control mean. Statistical analysis was done using GraphPad Prism version 10.0.0 for Windows, GraphPad Software, Boston, Massachusetts USA, worldwideweb(dot)graphpad(dot)com. For statistical analysis, significance was set as (*) p≤0.05; (**) p≤0.01; (***) p≤0.001; (****) p≤0.0001 and (ns; not significant) p>0.05.

fibroblast cells = test: live/dead viability assay, fibroblasts; format: cell-based; settings: ML228 0.62 and 5 μM, 48 hours
Description: (§1) The live/dead viability assay (cat #04511-1KT-F Merck, Germany) was used according to the manufacturer's protocol. Briefly, cells were incubated in a medium supplemented with the indicated concentrations of ML228 for 48 hours. Fluorescein diacetate (6.6 μg/mL) and propidium iodide (5 μg/mL) (Merck, NJ, USA) were prepared in DMEM and added to the cells. Confocal images were captured after addition of the dyes with ZEISS LSM 900, Laser Scanning Microscope. Fluorescence readouts were obtained with ex/em of 490/515 nm and 535/617 nm for green and red, respectively. Cellular ATP levels were quantified using the cell-titer assay (Promega, WI, USA cat #G7570).

fibroblasts = test: Cell-Titer assay of cellular ATP levels, fibroblasts; format: cell-based; settings: for IC50: Homo sapiens, Fibroblast
From the text: Human fibroblasts were isolated from fragments of healthy masticatory oral mucosa (from the posterior hard palate) collected during periodontal surgeries. Informed consent was obtained from all patients. Shallow tissue samples (without submucosa) with a diameter of approximately 2 mm were excised using a #15C scalpel blade. Exclusion criteria for potential tissue donors were smoking, any systemic disease, pregnancy or lactation, or a history of periodontal disease. Cells were separated into connective tissue and epithelium using dispase II (Sigma-Aldrich, Rehovot, Israel) at 2 mg/mL for two hours at 37° C.
as §1

[1] = tested on: HIF-1α, Collagen-I protein levels in fibroblast cells; test: Western blot of HIF-1α and Collagen-I in fibroblast lysate; format: cell-based, human
Description: Cells at a density of 50,000 cells/well in a 24-well plate were cultured for 2 days with variable ML228 concentrations. Cells were sonicated and lysed in a buffer containing 20 mM Tris-HCL pH=7.5 with a protease inhibitor (Abcam, Cambridge, UK) or a protease inhibitor from Merck (539134, Merck). Equal amounts (1 μg) of total protein were loaded and tested using Western blotting. Samples were divided for testing native samples and denaturative samples, which were dependent on each antibody recognition sites. Samples size was separated by a 6% sodium dodecyl sulfate (SDS) gel and transferred to nitrocellulose membranes that was further incubated overnight with primary antibodies of HIF-1α, and β-tubulin. As for detecting Collagen-I, samples were prepared in native conditions absent of SDS and β-mercaptoethanol. Thereafter, samples were separated by a native gel. Detection of Collagen-I was done in 6% native gel enabling observation of non-denatured structural collagen and preventing thermal degradation of the heat sensitive collagen. After extensive washing with TBST (Tris-buffered saline supplemented with 0.1% Tween-20), the membrane was further incubated with an HRP-conjugated secondary antibody for 1 hour. Chemiluminescence values were read after the addition of ECL substrate in a ChemiDoc imager (Biorad CA, USA).

osteoblasts = test: Cell-Titer assay of cellular ATP levels, osteoblasts; format: cell-based; settings: 48 hours
Description: MG-63 human osteosarcoma cell lines were obtained from the American Type Culture Collection (ATCC, Manassas, VA, USA). Cells were cultured in α-MEM supplemented with 10% FCS, 100 U/ml penicillin, and […] streptomycin at 37° C. in a humidified atmosphere incubator containing 5% CO2. Before treatment with ML228, 5,000 and 50,000 cells/well were seeded in a 96 or 24 well-plate, respectively.
as §1

c1ccc(-c2ccc(CNc3nc(-c4ccccn4)nnc3-c3ccccc3)cc2)cc1 [ML228, N-([1,1′-Biphenyl]-4-ylmethyl)-6-phenyl-3-(2-pyridinyl)-1,2,4-triazin-5-amine]
cell confluence vs untreated cells (NIH/3T3 cell line): significant reduction | cell death / cellular toxicity (live/dead assay) (fibroblast cells): without imparting cellular toxicity; also recorded: without imparting cellular death; also recorded: not an increase in cell death | IC50 (fibroblasts; fibroblasts, 48 hours, read-out: IC50 (ATP levels relative to non-treated cells)): 679 nM | IC50 (fibroblasts; summary statement for the treated cells (fibroblasts and osteoblasts), read-out: IC50 of cellular viability of ML228-treated cells): ~600 nM | metabolically active cell viability as measured by ATP levels (fibroblasts; fibroblasts, increasing ML228 concentrations, 48 hours): decrease in metabolically active cell viability | HIF-1α protein level ([1]; increasing concentrations of ML228, 48 hours): higher levels | Collagen-I protein level ([1]; increasing concentrations of ML228, 48 hours, native gel): higher levels | HIF-1α protein level ([1]; low doses of ML228, 48 hours): no HIF-1α protein is observed | IC50 (osteoblasts; Homo sapiens, Osteoblast, read-out: IC50 (ATP levels relative to non-treated cells)): 567 nM | metabolically active cell viability as measured by ATP levels (osteoblasts; increasing ML228 concentrations): decrease in metabolically active cell viability
